Reference: patent EP3789378A1, “PIPERIDINES OR PIPERIDONES SUBSTITUTED WITH UREA AND HETEROARYL” (Grünenthal GmbH, priority 2019, dated 2021)
pEC50: −log10 of the molar value.

biological target: T1, h FPR2 (Homo sapiens, UniProt P25090); experiment: Agonistic activity in hFPR2-Aq-CHO cells (FLIPR Calcium 5 fluorescence assay); format: cell-based; settings: 11 point half log dilution, final assay concentration from 10µM
T1 construct: expressed in transfected cells
T1 sequence (P25090 1-351): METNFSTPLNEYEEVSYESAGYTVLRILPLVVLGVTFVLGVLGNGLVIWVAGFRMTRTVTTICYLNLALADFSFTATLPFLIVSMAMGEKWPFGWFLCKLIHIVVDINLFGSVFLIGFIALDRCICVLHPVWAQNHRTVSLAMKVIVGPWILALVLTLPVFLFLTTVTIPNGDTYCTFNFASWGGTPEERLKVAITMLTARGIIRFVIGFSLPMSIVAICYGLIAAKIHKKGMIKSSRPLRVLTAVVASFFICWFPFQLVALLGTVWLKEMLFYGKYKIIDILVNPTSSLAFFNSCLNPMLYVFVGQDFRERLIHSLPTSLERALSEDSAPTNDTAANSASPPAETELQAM
Outline: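 hFPR2-Aq-CHO cells were loaded with Calcium 5 dye for 30 min at 37 °C and equilibrated 10 min at room temperature. Compound (11 points, 10 µM to 100 pM final) was added in HBSS/HEPES/probenecid buffer pH 7.4. Fluorescence rise over basal across 5 min, relative to no-compound wells, gave EC50.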

pEC50 | SMILES
8.52 | CNCCN1CC[C@@H](NC(=O)Nc2ccc(Cl)cc2)[C@H](c2ccc(OC)cn2)C1 (relative stereo) [Ex-117, trans-1-(4-Chlorophenyl)-3-[3-(5-methoxy-pyridin-2-yl)-1-(2-methylamino-ethyl)-piperidin-4-yl]-urea]
10.05 | COc1ccc([C@@H]2CN(Cc3cnn(S(C)(=O)=O)c3)CC[C@H]2NC(=O)Nc2ccc(Cl)cc2)nc1 (relative stereo) [Ex-125, trans-1-(4-Chlorophenyl)-3-[3-(5-methoxy-pyridin-2-yl)-1-[(1-methylsulfonyl-1H-pyrazol-4-yl)-methyl]-piperidin-4-yl]-urea]
8.92 | COc1ccc([C@@H]2CN(C)CC[C@H]2NC(=O)Nc2ccc(Cl)cc2)nc1 (relative stereo) [Ex-126, trans-1-(4-Chlorophenyl)-3-[3-(5-methoxy-pyridin-2-yl)-1-methyl-piperidin-4-yl]-urea]
8.30 | COc1ccc([C@@H]2CN(C(=O)c3ccc(C)nc3)CC[C@H]2NC(=O)Nc2ccc(C#N)cc2)nc1 (relative stereo) [Ex-128, trans-1-(4-Cyano-phenyl)-3-[3-(5-methoxy-pyridin-2-yl)-1-(6-methyl-pyridine-3-carbonyl)-piperidin-4-yl]-urea]
8.85 | COc1ccc([C@@H]2CN(CCN(C)C)CC[C@H]2NC(=O)Nc2ccc(Cl)cc2)nc1 (relative stereo) [Ex-136, trans-1-(4-Chlorophenyl)-3-[1-[2-(dimethylamino)ethyl]-3-(5-methoxy-pyridin-2-yl)-piperidin-4-yl]-urea]
9.05 | COc1ccc([C@@H]2CN(Cc3cnn(S(C)(=O)=O)c3)CC[C@H]2NC(=O)Nc2ccc(C#N)cc2)nc1 (relative stereo) [Ex-140, trans-1-(4-Cyano-phenyl)-3-[3-(5-methoxy-pyridin-2-yl)-1-[(1-methylsulfonyl-1H-pyrazol-4-yl)-methyl]-piperidin-4-yl]-urea]
8.92 | COc1ccc([C@@H]2CN(C(=O)c3ccc(C(F)(F)F)nc3)CC[C@H]2NC(=O)Nc2ccc(C#N)cc2)nc1 (relative stereo) [Ex-141, trans-1-(4-Cyano-phenyl)-3-[3-(5-methoxy-pyridin-2-yl)-1-[6-(trifluoromethyl)-pyridine-3-carbonyl]-piperidin-4-yl]-urea]
9.00 | COc1ccc([C@@H]2CN(CCC(C)(C)C#N)CC[C@H]2NC(=O)Nc2ccc(Cl)cc2)nc1 (relative stereo) [Ex-144, trans-1-(4-Chlorophenyl)-3-[1-(3-cyano-3-methyl-butyl)-3-(5-methoxy-pyridin-2-yl)-piperidin-4-yl]-urea]
9.52 | COc1ccc([C@@H]2CN(Cc3cnn(C)c3)CC[C@H]2NC(=O)Nc2ccc(Cl)cc2)nc1 (relative stereo) [Ex-145, trans-1-(4-Chlorophenyl)-3-[3-(5-methoxy-pyridin-2-yl)-1-[(1-methyl-1H-pyrazol-4-yl)-methyl]-piperidin-4-yl]-urea]
8.70 | COc1ccc([C@@H]2CN(Cc3cnn(C)c3)CC[C@H]2NC(=O)Nc2ccc(C#N)cc2)nc1 (relative stereo) [Ex-146, trans-1-(4-Cyano-phenyl)-3-[3-(5-methoxy-pyridin-2-yl)-1-[(1-methyl-1H-pyrazol-4-yl)-methyl]-piperidin-4-yl]-urea]

Continued, molecule first:

SMILES | pEC50
COc1ccc([C@@H]2CN(C(=O)CN(C)C)CC[C@H]2NC(=O)Nc2cc(C)ns2)nc1 (relative stereo) [Ex-118, trans-1-[1-(2-Dimethylamino-acetyl)-3-(5-methoxy-pyridin-2-yl)-piperidin-4-yl]-3-(3-methyl-isothiazol-5-yl)-urea] | 8.30
COc1ccc([C@@H]2CN(C(=O)C3COC3)CC[C@H]2NC(=O)Nc2cc(C)ns2)nc1 (relative stereo) [Ex-119, trans-1-[3-(5-Methoxy-pyridin-2-yl)-1-(oxetane-3-carbonyl)-piperidin-4-yl]-3-(3-methyl-isothiazol-5-yl)-urea] | 8.05
COc1ccc([C@@H]2CN(CC(C)(C)O)CC[C@H]2NC(=O)Nc2ccc(Cl)cc2)nc1 (relative stereo) [Ex-120, trans-1-(4-Chlorophenyl)-3-[1-(2-hydroxy-2-methyl-propyl)-3-(5-methoxy-pyridin-2-yl)-piperidin-4-yl]-urea] | 9.15
COc1ccc([C@@H]2CN(CC(C)(C)O)CC[C@H]2NC(=O)Nc2cc(C)ns2)nc1 (relative stereo) [Ex-121, trans-1-[1-(2-Hydroxy-2-methyl-propyl)-3-(5-methoxy-pyridin-2-yl)-piperidin-4-yl]-3-(3-methyl-isothiazol-5-yl)-urea] | 8.92
COc1ccc([C@@H]2CN(CCO)CC[C@H]2NC(=O)Nc2cc(C)ns2)nc1 (relative stereo) [Ex-122, trans-1-[1-(2-Hydroxy-ethyl)-3-(5-methoxy-pyridin-2-yl)-piperidin-4-yl]-3-(3-methyl-isothiazol-5-yl)-urea] | 8.52
COc1ccc([C@@H]2CN(C(=O)CO)CC[C@H]2NC(=O)Nc2cc(C)ns2)nc1 (relative stereo) [Ex-123, trans-1-[1-(2-Hydroxy-acetyl)-3-(5-methoxy-pyridin-2-yl)-piperidin-4-yl]-3-(3-methyl-isothiazol-5-yl)-urea] | 7.74
COc1ccc([C@@H]2CN(CC3CC3)CC[C@H]2NC(=O)Nc2ccc(Cl)cc2)nc1 (relative stereo) [Ex-127, trans-1-(4-Chlorophenyl)-3-[1-(cyclopropyl-methyl)-3-(5-methoxy-pyridin-2-yl)-piperidin-4-yl]-urea] | 9.80
COc1ccc([C@@H]2CN(CC(N)=O)CC[C@H]2NC(=O)Nc2ccc(Cl)cc2)nc1 (relative stereo) [Ex-129, trans-2-[4-[[(4-Chlorophenyl)-carbamoyl]amino]-3-(5-methoxy-pyridin-2-yl)-piperidin-1-yl]-acetamide] | 9.52
O=C(Nc1ccc(Cl)cc1)N[C@@H]1CCN(C(=O)C2CCNCC2)C[C@H]1c1ccc(Cl)s1 (relative stereo) [Ex-130, trans-1-(4-Chlorophenyl)-3-[3-(5-chloro-thiophen-2-yl)-1-(piperidine-4-carbonyl)-piperidin-4-yl]-urea] | 8.40
O=C(Nc1ccc(Cl)cc1)N[C@@H]1CCN(C(=O)C2CCC(O)CC2)C[C@H]1c1ccc(Cl)s1 (relative stereo) [Ex-132, trans-1-(4-Chlorophenyl)-3-[3-(5-chloro-thiophen-2-yl)-1-(4-hydroxy-cyclohexanecarbonyl)-piperidin-4-yl]-urea] | 7.41
COc1ccc([C@@H]2CN(C3COC3)CC[C@H]2NC(=O)Nc2cc(C)ns2)nc1 (relative stereo) [Ex-133, trans-1-[3-(5-Methoxy-pyridin-2-yl)-1-(oxetan-3-yl)-piperidin-4-yl]-3-(3-methyl-isothiazol-5-yl)-urea] | 7.89
CNCCN1CC[C@@H](NC(=O)Nc2cc(C)ns2)[C@H](c2ccc(OC)cn2)C1 (relative stereo) [Ex-134, trans-1-[3-(5-Methoxy-pyridin-2-yl)-1-(2-methylamino-ethyl)-piperidin-4-yl]-3-(3-methyl-isothiazol-5-yl)-urea] | 8.70
CNCCC(=O)N1CC[C@@H](NC(=O)Nc2cc(C)ns2)[C@H](c2ccc(OC)cn2)C1 (relative stereo) [Ex-135, trans-1-[3-(5-Methoxy-pyridin-2-yl)-1-(3-methylamino-propanoyl)-piperidin-4-yl]-3-(3-methyl-isothiazol-5-yl)-urea] | 7.77
CNCCCN1CC[C@@H](NC(=O)Nc2ccc(Cl)cc2)[C@H](c2ccc(OC)cn2)C1 (relative stereo) [Ex-137, trans-1-(4-Chlorophenyl)-3-[3-(5-methoxy-pyridin-2-yl)-1-(3-methylamino-propyl)-piperidin-4-yl]-urea] | 9.70
COc1ccc([C@@H]2CN(CCC(N)=O)CC[C@H]2NC(=O)Nc2ccc(Cl)cc2)nc1 (relative stereo) [Ex-142, trans-3-[4-[[(4-Chlorophenyl)-carbamoyl]amino]-3-(5-methoxy-pyridin-2-yl)-piperidin-1-yl]-propionamide] | 8.96
COc1ccc([C@@H]2CN(CC3CCN(C)CC3)CC[C@H]2NC(=O)Nc2ccc(Cl)cc2)nc1 (relative stereo) [Ex-147, trans-1-(4-Chlorophenyl)-3-[3-(5-methoxy-pyridin-2-yl)-1-[(1-methyl-piperidin-4-yl)-methyl]-piperidin-4-yl]-urea] | 9.40
COc1ccc([C@@H]2CN(CCS(C)(=O)=O)CC[C@H]2NC(=O)Nc2cc(C)ns2)nc1 (relative stereo) [Ex-148, trans-1-[3-(5-Methoxy-pyridin-2-yl)-1-(2-methylsulfonyl-ethyl)-piperidin-4-yl]-3-(3-methyl-isothiazol-5-yl)-urea] | 8.22

same assay, conditions: agonistic response at 0.1µM

activation at 0.1 µM | SMILES
38% | O=C(Nc1ccc(Cl)cc1)N[C@@H]1CCN(C(=O)CCO)C[C@H]1c1ccc(Cl)s1 (relative stereo) [Ex-131, trans-1-(4-Chlorophenyl)-3-[3-(5-chloro-thiophen-2-yl)-1-(3-hydroxy-propanoyl)-piperidin-4-yl]-urea]
34% | COc1ccc([C@@H]2CN(C(=O)CO)CC[C@H]2NC(=O)Nc2ccccc2)nc1 (relative stereo) [Ex-139, trans-1-[1-(2-Hydroxy-acetyl)-3-(5-methoxy-pyridin-2-yl)-piperidin-4-yl]-3-phenyl-urea]
